Test results reported in patent US7378402B2, “Anti-viral nucleosides” (Roche Palo Alto LLC, priority 2004, dated 2008).
One block for each compound: values may come before it.

Key:
[1] = monotherapy; cited from earlier work
[2] = tested on: HIV; details: cited from earlier work
[3] = tested on: HCV replicon RNA (Renilla luciferase HCV replicon cells 2209-23, human hepatoma Huh7); assay: Renilla luciferase HCV replicon assay; format: cell-based, hepatitis C virus (HCV); details: Huh-7, 72 h; replicon cells 2209-23, incubated three days at 37° C.; concentration reducing replicon level by 50%

Structure (SMILES): NC(=O)c1ncn([C@@H]2O[C@H](CO)[C@@H](O)[C@H]2O)n1 [ribavirin, 1-((2R,3R,4S,5R)-3,4-Dihydroxy-5-hydroxymethyl-tetrahydro-furan-2-yl)-1H-[1,2,4]triazole-3-carboxylic acid amide]
effect on serum levels of HCV-RNA [1]: does not lower
patients in whom serum amino transferase levels are reduced to normal [1]: 40%

Structure (SMILES): C#CC1(CO)OC(n2ccc(N)nc2=O)C(O)C1O (stereo not shown) [Compound 12a, 4-Ethynyl-cytarabine]
anti-HIV activity [2]: good anti-HIV activity

melting point: 106.9 to 107.3 °C
Structure (SMILES): CC(C)C(NC(=O)OC(C)(C)C)C(=O)OC[C@@]1(N=[N+]=[N-])O[C@@H](n2ccc(N)nc2=O)[C@@H](O)[C@@H]1O (stereo partly shown)

Structure (SMILES): [N-]=[N+]=N[C@]1(CO)O[C@@H](n2ccc(N)nc2=O)[C@@H](O)[C@@H]1O [Compound I-1, 4-Amino-1-((2R,3S,4S,5R)-5-azido-3,4-dihydroxy-5-hydroxymethyl-tetrahydro-furan-2yl)-1H-pyrimidin-2-one]
IC50 [3]: 220 nM

melting point: 160.4 to 162.2 °C
Structure (SMILES): CCCCC(=O)O[C@@H]1[C@H](n2ccc(N)nc2=O)O[C@@](CO)(N=[N+]=[N-])[C@H]1OC(=O)CCCC

melting point: 110.3 to 119.3 °C
Structure (SMILES): CCCCCCCCCCCCCC(=O)OC[C@@]1(N=[N+]=[N-])O[C@@H](n2ccc(N)nc2=O)[C@@H](O)[C@@H]1O
